Consider 2 molecules from ChEMBL document CHEMBL1151754, “Structural and mechanistic studies of mofegiline inhibition of recombinant human monoamine oxidase B” (J Med Chem, 2008).

The term Ki denotes the equilibrium dissociation constant of an inhibitor or competing ligand from its target. Broadly, the IC50 is the concentration at which inhibition is half-maximal.

The target of data set [1] is T1, Amine oxidase [flavin-containing] A (Homo sapiens, UniProt P21397).
T1 sequence (P21397 whole entry): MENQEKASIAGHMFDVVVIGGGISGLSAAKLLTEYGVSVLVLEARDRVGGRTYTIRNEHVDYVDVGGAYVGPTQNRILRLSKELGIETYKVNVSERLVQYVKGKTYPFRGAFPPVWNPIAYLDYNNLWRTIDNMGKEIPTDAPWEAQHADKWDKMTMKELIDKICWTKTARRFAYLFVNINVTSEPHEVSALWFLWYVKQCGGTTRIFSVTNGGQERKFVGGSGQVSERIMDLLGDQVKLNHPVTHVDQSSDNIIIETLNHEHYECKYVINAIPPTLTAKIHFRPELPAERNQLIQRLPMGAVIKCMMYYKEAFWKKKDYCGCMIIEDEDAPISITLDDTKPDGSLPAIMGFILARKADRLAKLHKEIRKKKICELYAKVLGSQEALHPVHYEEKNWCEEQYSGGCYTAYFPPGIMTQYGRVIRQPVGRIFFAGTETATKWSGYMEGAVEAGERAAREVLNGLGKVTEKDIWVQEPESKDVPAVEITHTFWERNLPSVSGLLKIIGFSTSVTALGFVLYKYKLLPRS
As to the kind of experiment: Inhibition of human MAOA.

Data set [2] addresses T2, Amine oxidase [flavin-containing] B (Homo sapiens, UniProt P27338).
T2 sequence (P27338 whole entry): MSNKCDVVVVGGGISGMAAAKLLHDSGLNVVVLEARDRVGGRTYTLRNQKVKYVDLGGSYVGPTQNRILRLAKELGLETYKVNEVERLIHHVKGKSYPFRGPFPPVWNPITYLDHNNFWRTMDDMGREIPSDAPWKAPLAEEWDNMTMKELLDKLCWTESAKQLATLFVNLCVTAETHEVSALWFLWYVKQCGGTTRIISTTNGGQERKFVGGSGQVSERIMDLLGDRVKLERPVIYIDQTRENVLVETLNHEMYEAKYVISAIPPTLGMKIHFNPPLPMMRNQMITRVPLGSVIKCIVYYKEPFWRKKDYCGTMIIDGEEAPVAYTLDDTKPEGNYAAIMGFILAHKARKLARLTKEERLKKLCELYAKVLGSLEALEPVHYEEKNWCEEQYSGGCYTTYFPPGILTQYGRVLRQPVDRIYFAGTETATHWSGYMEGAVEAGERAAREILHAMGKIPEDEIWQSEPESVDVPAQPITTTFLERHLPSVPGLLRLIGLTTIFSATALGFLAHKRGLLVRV
The experiment in a line: Inhibition of human recombinant MAOB expressed in Pichia pastoris assessed as effect on flavin absorbance shift by spectroscopy.

For data set [3], the target named is T2, Amine oxidase [flavin-containing] B. As to the kind of experiment: Inhibition of human recombinant MAOB expressed in Pichia pastoris assessed as fluoride ion release by ion-selective electrode experiment.
Data set [4] has the same target. As to the kind of experiment: Inhibition of human recombinant MAOB expressed in Pichia pastoris at stoichiometric level of 1 mol/mol of E-FAD.
The target is the same in data set [5]. As to the kind of experiment: Inhibition of reduced human recombinant MAOB expressed in Pichia pastoris assessed as increase in absorbance of reduced enzyme. Also on record: scale not given: the % may be the effect or the level left.
The target is the same in data set [6]. As to the kind of experiment: Inhibition of human recombinant MAOB expressed in Pichia pastoris by kinetic assay.
Data set [7] has as its target T1, Amine oxidase [flavin-containing] A. The experiment in a line: Inhibition of oxidized human recombinant MAOA expressed in Pichia pastoris under anaerobic assay condition.
For data set [8], the target named is T2, Amine oxidase [flavin-containing] B. As to the kind of experiment: Inhibition of oxidized human recombinant MAOB expressed in Pichia pastoris under anaerobic assay condition.
Data set [9] deals with T3, Amine oxidase [flavin-containing] B (Rattus norvegicus, UniProt P19643).
T3 sequence (P19643 whole entry): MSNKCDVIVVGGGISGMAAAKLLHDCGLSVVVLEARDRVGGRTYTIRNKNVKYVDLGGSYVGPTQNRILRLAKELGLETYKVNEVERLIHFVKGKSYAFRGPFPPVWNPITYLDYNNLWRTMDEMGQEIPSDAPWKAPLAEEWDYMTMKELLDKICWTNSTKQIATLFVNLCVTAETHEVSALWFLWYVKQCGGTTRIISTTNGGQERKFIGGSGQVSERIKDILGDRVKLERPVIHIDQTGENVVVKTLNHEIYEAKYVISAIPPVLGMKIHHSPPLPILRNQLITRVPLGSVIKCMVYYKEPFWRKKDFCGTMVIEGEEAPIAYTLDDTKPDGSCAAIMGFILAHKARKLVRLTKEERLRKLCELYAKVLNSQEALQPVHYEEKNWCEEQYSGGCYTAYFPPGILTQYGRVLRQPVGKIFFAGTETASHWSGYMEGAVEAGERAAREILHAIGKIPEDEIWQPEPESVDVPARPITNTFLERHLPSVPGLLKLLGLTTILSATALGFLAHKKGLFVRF
As to the kind of experiment: Inhibition of rat membrane MAOB.

Data set [10] deals with T2, Amine oxidase [flavin-containing] B. The experiment in a line: Inhibition of human recombinant MAOB expressed in Pichia pastoris assessed as formation of intense negative dichroic band at […] by CD spectroscopy.
Data set [11] addresses T1, Amine oxidase [flavin-containing] A. The experiment in a line: Inhibition of human recombinant MAOA expressed in Pichia pastoris by kinetic assay.

As to `NCCCCc1ccccc1` [4-PHENYL-BUTYLAMINE], in [1], the inhibition constant Ki amounted to 31 µM.

As for `NC/C(=C/F)CCc1ccc(F)cc1` [MOFEGILINE], the Activity entry in data set [2] was “Active”; in data set [3], “Active”; in [4], “Active”; in data set [5] it was 50%; in data set [7], “Not Active”; in data set [8], “Active”. For the same molecule, the result in data set [10] was Active. The inhibition constant Ki in data set [6] was 28 nM; in data set [11] it was 1100 nM. This molecule returned an IC50 in data set [9] of 3.6 nM.
